Data as given in paper PMC10051811, “Plasma and Cerebrospinal Fluid Concentrations of Micafungin Administered at High Doses in Critically Ill Infants with Systemic Candidiasis: A Pooled Analysis of Two Studies” (Pharmaceuticals, 2023).
Read-outs that look alike come from different tables or passages of the source. *1 amine or outer side, *2 acyl side, *3 side chain or, on linkers, in order; H or OH if unused. Where a SMILES comes first, the peptide text is derived from it. Bridges are numbered along the chain shown (N, C = ends). [ ]: non-standard residue; d: D form. The star is where a group is joined. hTyr(3S-OH,4S-OH,3'-OSO3H) = N[C@H](C(=O)O)[C@H](O)[C@@H](O)c1ccc(O)c(OS(=O)(=O)O)c1; Orn(4R-OH,5R-OH) = O=C([C@H](C[C@@H](O)[C@@H](O)N[*:3])N[*:1])[*:2]; Pro(3S-OH,4S-Me) = C[C@H]1CN[C@H](C(=O)O)[C@H]1O; X1 = CCCCCOc1ccc(-c2cc(-c3ccc(C(=O)*)cc3)no2)cc1; Gln(3R-OH) = NC(=O)C[C@@H](O)[C@H](N)C(=O)O; Hyp = O=C(O)[C@@H]1C[C@@H](O)CN1

Tests used:
[1] = Treatment-emergent adverse events (TEAEs) in treated infants; type: in vivo, human
Description: In order to evaluate drug safety, we analyzed treatment-emergent adverse effects (TEAEs). TEAEs were defined as an adverse effect experienced any time during the study’s drug administration to 72 h after the last dose of the study drug. A reasonable possibility that the event could have been caused by the study drug was assessed by the investigators; if the relationship was missing, it was considered to be drug-related.

[2] = ref 1 (Yanni et al.), cited from earlier work
Description: Yanni et al. observed an increased clearance of micafungin in infants and children: 40–80 mL/h/kg in premature infants and 20 mL/h/kg in children >4 months of age.

## CCCCCOc1ccc(-c2cc(-c3ccc(C(=O)N[C@H]4C[C@@H](O)[C@@H](O)NC(=O)[C@@H]5[C@@H](O)[C@@H](C)CN5C(=O)[C@H]([C@H](O)CC(N)=O)NC(=O)[C@H]([C@H](O)[C@@H](O)c5ccc(O)c(OS(=O)(=O)O)c5)NC(=O)[C@@H]5C[C@@H](O)CN5C(=O)[C@H]([C@@H](C)O)NC4=O)cc3)no2)cc1 [micafungin] (X1-[Orn(4R-OH,5R-OH)]T[Hyp][hTyr(3S-OH,4S-OH,3'-OSO3H)][Gln(3R-OH)][Pro(3S-OH,4S-Me)]; lactam 1-C)
[1]; 53 infants, 8-15 mg/kg/day iv, thirty-four patients
  Patients with overall treatment-emergent adverse events (TEAEs): 64.2%
[1]; 53 infants, one patient, drug-related TEAE
  Patients with transient hypertransaminasaemia: 1.9%
[1]; 53 infants, three TEAEs
  Drug-related TEAEs (not serious): 5.7%
[1]; 53 infants, three cases
  TEAEs leading to death (septic shock, not drug-related): 5.7%
[1]; 53 infants, two patients, drug-related TEAE
  Patients with transiently increased levels of gamma-glutamyltransferase: 3.8%
[1]; high doses 8–15 mg/kg/day in neonates and infants
  Serious adverse events related to the therapy: no serious adverse events
[2]; children >4 months of age
  clearance: 0.333 mL/min/kg
[2]; premature infants
  clearance: 0.667 to 1.33 mL/min/kg
